According to BigSolDB 2.1:

COc1ccc(C(=O)c2ccc(OC)cc2)cc1
solubility (mole fraction)
Details | in benzene | in ethanol | in ethyl acetate | in isobutanol | in isopropanol | in methanol | in methyl acetate | in n-butanol | in n-propanol | in n-propyl acetate
293.15 K | 0.0123 | 0.00091 | 0.00908 | 0.00101 | 0.00079 | 0.00067 | 0.00958 | 0.00114 | 0.00114 | 0.00947
298.15 K | 0.0149 | 0.00109 | 0.0111 | 0.00137 | 0.001 | 0.00081 | 0.0115 | 0.00164 | 0.00141 | 0.0112
303.15 K | 0.018 | 0.00141 | 0.0129 | 0.00168 | 0.0013 | 0.00104 | 0.0138 | 0.00214 | 0.00177 | 0.0126
308.15 K | 0.0221 | 0.00188 | 0.0155 | 0.00237 | 0.00193 | 0.00134 | 0.0166 | 0.00306 | 0.00224 | 0.0151
313.15 K | 0.0278 | 0.0024 | 0.0189 | 0.00313 | 0.00241 | 0.00181 | 0.0204 | 0.0036 | 0.00314 | 0.0187
318.15 K | 0.0338 | 0.00302 | 0.023 | 0.00404 | 0.00308 | 0.00219 | 0.0248 | 0.00457 | 0.00403 | 0.0229
323.15 K | 0.041 | 0.00402 | 0.0284 | 0.00539 | 0.00423 | 0.00286 | 0.0311 | 0.00612 | 0.00538 | 0.0277
328.15 K | 0.0504 | 0.00516 | 0.0343 | 0.00718 | 0.00549 | 0.0037 | 0.0376 | 0.00824 | 0.00707 | 0.0329
333.15 K | 0.063 | 0.00653 | 0.0408 | 0.00972 | 0.0075 | 0.00473 | – | 0.00996 | 0.00928 | 0.0406
